Data: US5990142A, “Benzopyran derivatives having leukotriene-antagonistic action” (Laboratorios Menarini S.A., priority 1996, dated 1999)

target: T1, LTD4 receptor (Cavia porcellus, UniProt Q2NNR5); assay: [^3 H]-LTD4 Receptor Binding Inhibition Test in Guinea-pig Lung Membranes; conditions: 0.5 nM [^3 H]-LTD4, 30 min at 25° C., pH 7.4, Cheng-Prusoff
T1 construct: Guinea pig lung membranes, containing the LTD4 receptors, are purified; from tissue; host or cells: guinea-pig lung membranes
T1 sequence (Q2NNR5 1-340): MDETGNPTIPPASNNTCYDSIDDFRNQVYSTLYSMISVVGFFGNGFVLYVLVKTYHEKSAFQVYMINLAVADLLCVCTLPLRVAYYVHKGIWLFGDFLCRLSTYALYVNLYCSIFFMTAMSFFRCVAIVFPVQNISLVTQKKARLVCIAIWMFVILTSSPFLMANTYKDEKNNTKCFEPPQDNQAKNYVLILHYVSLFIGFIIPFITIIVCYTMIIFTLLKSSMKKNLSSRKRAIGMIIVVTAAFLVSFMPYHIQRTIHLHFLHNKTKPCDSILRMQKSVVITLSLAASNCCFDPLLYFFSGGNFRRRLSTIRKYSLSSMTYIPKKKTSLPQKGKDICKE
Experimental: The antagonistic activity on LTD4 of the compounds of the present invention is determined by means of an inhibition test of the [^3 H]-LTD4 receptor binding in guinea-pig lung membranes.
[^3 H]-LTD4 Receptor Binding Inhibition Test in Guinea-pig Lung Membranes
Guinea pig lung membranes, containing the LTD4 receptors, are purified following the method described by Mong and col. (Mong et al., Prostaglandins, 1984, 28. 805). These purified membranes (150 μg/ml) are added to an incubation mixture containing 10 mM of PIPES buffer (piperazine-N,N'-bis(2-ethanesulfonic acid) (pH 7.4), 10 mM CaCl2, 10 mM MgCl2, 2 mM cysteine, 2 mM glycine, 0.5 nM [^3 H]-LTD4 (4700-6400 GBq/mmol) and different concentrations of the product under test in a final volume of 310 μl. The reaction mixture is incubated for 30 minutes at 25° C.
The radioligand bound to the membranes is separated from the free one by dilution with 4 ml washing buffer (10 mM Tris-HCl (pH 7.4) and 100 mM NaCl) at 0° C. and filtration with Whatman GF/B filters, by means of a Brandel Cell Harvester. The filters are washed 4 times with a total volume of 16 ml of washing buffer at 0° C. The radioactivity present in the filters is determined by liquid scintillation.
The specific binding is defined as the difference between the total binding of [^3 H]-LTD4 and the non-specific binding determined in the presence of 1 μM LTD4. The data obtained in the competition tests are analyzed by a computational program, which determines the inhibition constant of each compound (Ki) by means of the Cheng-Prusoff equation (Cheng et al., Biochem. Pharmacol., 1973, 22, 3094).
wherein IC50 is the concentration of compound which displaces a 50% of the bound radioligand, [L] is the concentration of [^3 H]LTD4 free in the test and Kd is the dissociation constant of the LTD4 obtained in an independent way by means of Scatchard analysis.

Row | SMILES | Ki [nM]
1 | O=C(Nc1cccc2c(=O)cc(C(=O)O)oc12)c1ccc2c(c1)CCC(COCc1ccccc1)O2 (centres unmarked) [Example 1, 8-[2-(Benzyloxymethyl)chromane-6-carboxamido]-4-oxo-4H-1-benzopyran-2-carboxylic acid] | 145 ± 34
2 | O=C(Nc1cccc2c(=O)cc(-c3nnn[nH]3)oc12)c1ccc2c(c1)CCC(COCc1ccccc1)O2 (centres unmarked) [Example 2, N-[4-Oxo-2-(1H-5-tetrazolyl)-4H-1-benzopyran-8-yl]-2-(benzyloxymethyl)chromane-6-carboxamide] | 12 ± 4
3 | O=C(Nc1cccc2c(=O)cc(C(=O)O)oc12)c1ccc2c(c1)CCC(CCCc1ccccc1)O2 (centres unmarked) [Example 3, 8-[2-(3-Phenylpropyl)chromane-6-carboxamido]-4-oxo-4H-1-benzopyran-2-carboxylic acid] | 5.6 ± 0.5
4 | O=C(Nc1cccc2c(=O)cc(-c3nnn[nH]3)oc12)c1ccc2c(c1)CCC(CCCc1ccccc1)O2 (centres unmarked) [Example 4, N-[4-Oxo-2-(1H-5-tetrazolyl)-4H-1-benzopyran-8-yl]-2-(3-phenylpropyl)chromane-6-carboxamide] | 2.3 ± 0.2
5 | O=C(Nc1cccc2c(=O)cc(C(=O)O)oc12)c1ccc2oc(COCc3ccccc3)cc2c1 [Example 5, 8-[2-(Benzyloxymethyl)benzofuran-5-carboxamido]-4-oxo-4H-1-benzopyran-2-carboxylic acid] | 24 ± 3
6 | O=C(Nc1cccc2c(=O)cc(C(=O)O)oc12)c1ccc2c(c1)CC(COCc1ccccc1)O2 (centres unmarked) [Example 6, 8-(2-Benzyloxymethyl-2,3-dihydrobenzofuran-5-carboxamido)-4-oxo-4H-1-benzopyran-2-carboxylic acid] | 6 ± 2.1
7 | O=C(Nc1cccc2c(=O)cc(-c3nnn[nH]3)oc12)c1ccc2c(c1)CC(COCc1ccccc1)O2 (centres unmarked) [Example 7, N-[4-Oxo-2-(1H-5-tetrazolyl)-4H-1-benzopyran-8-yl]-2-benzyloxymethyl-2,3-dihydrobenzofuran-5-carboxamide] | 1.88 ± 0.2
8 | O=C(Nc1cccc2c(=O)cc(C(=O)O)oc12)c1ccc2c(c1)CC(CCCc1ccccc1)O2 (centres unmarked) [Example 8, 8-[2-(3-Phenylpropyl)-2,3-dihydrobenzofuran-5-carboxamido]-4-oxo-4H-1-benzopyran-2-carboxylic acid] | 1.73 ± 0.2
9 | O=C(Nc1cccc2c(=O)cc(-c3nnn[nH]3)oc12)c1ccc2c(c1)CC(CCCc1ccccc1)O2 (centres unmarked) [Example 9, N-[4-Oxo-2-(1H-5-tetrazolyl)-4H-1-benzopyran-8-yl]-2-(3-phenylpropyl)-2,3-dihydrobenzofuran-5-carboxamide] | 1.1 ± 0.2
10 | O=C(Nc1cccc2c(=O)cc(C(=O)O)oc12)c1ccc2c(c1)CC(CSCc1ccccc1)O2 (centres unmarked) [Example 10, 8-(2-Benzylthiomethyl-2,3-dihydrobenzofuran-5-carboxamido)-4-oxo-4H-1-benzopyran-2-carboxylic acid] | 9 ± 0.8
11 | O=C(Nc1cccc2c(=O)cc(C(=O)O)oc12)c1ccc2c(c1)CC(COCc1ccc(F)cc1)O2 (centres unmarked) [Example 11, 8-[2-(4'-Fluorobenzyloxymethyl)-2,3-dihydrobenzofuran-5-carboxamido]-4-oxo-4H-1-benzopyran-2-carboxylic acid] | 1.9 ± 0.04
12 | O=C(Nc1cccc2c(=O)cc(-c3nnn[nH]3)oc12)c1ccc2c(c1)CC(COCc1ccc(F)cc1)O2 (centres unmarked) [Example 12, N-[4-Oxo-2-(1H-5-tetrazolyl)-4H-1-benzopyran-8-yl]-2-(4'-fluorobenzyloxymethyl)-2,3-dihydrobenzofuran-5-carboxamide] | 0.39 ± 0.1
13 | O=C(Nc1cccc2c(=O)cc(C(=O)O)oc12)c1cc(Cl)c2c(c1)CC(CCCc1ccccc1)O2 (centres unmarked) [Example 13, 8-[7-chloro-2-(3-phenylpropyl)-2,3-dihydrobenzofuran-5-carboxamido]-4-oxo-4H-1-benzopyran-2-carboxylic acid] | 9.3 ± 3
14 | O=C(Nc1cc(F)cc2c(=O)cc(C(=O)O)oc12)c1ccc2c(c1)CC(CCCc1ccccc1)O2 (centres unmarked) [Example 14, 8-[2-(3-Phenylpropyl)-2,3-dihydrobenzofuran-5-carboxamido]-6-fluoro-4-oxo-4H-1-benzopyran-2-carboxylic acid] | 4.2 ± 1.1
15 | O=C(O)c1cc(=O)c2cccc(NC(=O)c3ccc4c(c3Cl)CC(CCCc3ccccc3)O4)c2o1 (centres unmarked) [Example 15, 8-[4-Chloro-2-(3-phenylpropyl)-2,3-dihydrobenzofuran-5-carboxamido]-4-oxo-4H-1-benzopyran-2-carboxylic acid] | 102 ± 48
16 | O=C(O)c1cc(=O)c2cccc(NC(=O)c3cc4c(cc3Cl)OC(CCCc3ccccc3)C4)c2o1 (centres unmarked) [Example 16, 8-[6-Chloro-2-(3-phenylpropyl)-2,3-dihydrobenzofuran-5-carboxamido]-4-oxo-4H-1-benzopyran-2-carboxylic acid] | 169 ± 24
17 | Cc1cn(CCCCc2ccccc2)c2ccc(C(=O)Nc3cccc4c(=O)cc(-c5nnn[nH]5)oc34)cc12 [Example 17, N-[4-Oxo-2-(1H-5-tetrazolyl)-4H-1-benzopyran-8-yl]-1-(4-phenylbutyl)-3-methylindole-5-carboxamide] | 1200 ± 440
18 | O=C(O)c1cc(=O)c2cccc(OCc3ccc(OCCCCc4ccccc4)cc3)c2o1 [Example 18, 8-[[4-(4-phenylbutoxy)phenyl]methyloxy]-4-oxo-4H-1-benzopyran-2-carboxylic acid] | 174 ± 43
19 | O=C(O)c1cc(=O)c2cccc(NS(=O)(=O)c3ccc(OCCCCc4ccccc4)cc3)c2o1 [Example 19, 8-[[4-(4-Phenylbutoxy)phenyl]sulfonylamino]-4-oxo-4H-1-benzopyran-2-carboxylic acid] | 6 ± 1
20 | O=C(O)c1cc(=O)c2cccc(/C=C/c3ccc(OCCCCc4ccccc4)cc3)c2o1 [Example 20, 4-oxo-8-[(E)-2-[4-(4-phenylbutoxy)phenyl]ethen-1-yl]-4H-1-benzopyran-2-carboxylic acid] | 6.2 ± 1.3
21 | O=c1cc(-c2nnn[nH]2)oc2c(/C=C/c3ccc(OCCCCc4ccccc4)cc3)cccc12 [Example 21, 8-[(E)-2-[4-(4-Phenylbutoxy)phenyl]ethen-1-yl]-4-oxo-2-(5-1H-tetrazolyl]-4H-1-benzopyran] | 0.5 ± 0.2
22 | O=C(O)c1cc(=O)c2cccc(/C=C/c3ccc(OCCCCc4ccc(F)cc4)cc3)c2o1 [Example 22, 8-[(E)-2-[4-[4-(4-Fluorophenyl)butoxy]phenyl]-ethen-1-yl]-4-oxo-4H-1-benzopyran-2-carboxylic acid] | 6 ± 3
23 | O=c1cc(-c2nnn[nH]2)oc2c(/C=C/c3ccc(OCCCCc4ccc(F)cc4)cc3)cccc12 [Example 23, 8-[(E)-2-[4-[4-(4-Fluorophenyl)butoxy]phenyl]ethen-1-yl]-4-oxo-2-(5-1H-tetrazolyl)-4H-1-benzopyran] | 0.39 ± 0.1
24 | O=C(O)c1cc(=O)c2cccc(/C=C/c3ccc(OCCCCc4ccccc4)cc3F)c2o1 [Example 24, 8-[(E)-2-[4-(4-Phenylbutoxy)-2-fluorophenyl]ethen-1-yl]-4-oxo-4H-1-benzopyran-2-carboxylic acid] | 22.3 ± 0.1
25 | O=C(O)c1cc(=O)c2cccc(/C=C/c3ccc4c(c3)CC(COCc3ccc(F)cc3)O4)c2o1 (centres unmarked) [Example 25, 8-[(E)-2-[2-(4'-Fluorobenzyloxymethyl)-2,3-dihydrobenzofuran-5-yl]ethen-1-yl]-4-oxo-4H-1-benzopyran-2-carboxylic acid] | 1.25 ± 0.3
26 | O=c1cc(-c2nnn[nH]2)oc2c(/C=C/c3ccc4c(c3)CC(COCc3ccc(F)cc3)O4)cccc12 (centres unmarked) [Example 26, 8-[(E)-2-[2-(4'-fluorobenzyloxymethyl)-2,3-dihydrobenzofuran-5-yl]ethen-1-yl]-4-oxo-2-(5-1H-tetrazolyl)-4H-1-benzopyran] | 0.46 ± 0.1
